Laboratory results from patent publication US20240115597A1, “METHOD FOR TREATING AND/OR PREVENTING HEARING LOSS BY USING TOLL-LIKE RECEPTOR 7 AND/OR 9 ANTAGONIST” (Kaohsiung Chang Gung Memorial Hospital, priority 2022, published 2024).
Entries after “also recorded” stand apart in the source; their conditions may differ.

How the values were obtained:
[1] = system: CBA/CaJ mice; experiment: Noise-induced auditory brainstem response (ABR) threshold shift; assay type: in vivo; details: 3 weeks after 106-dB noise exposure, chloroquine 50 mg/kg intraperitoneal, ODN 2088 5 mg/kg subcutaneous, four treatments
Protocol: (§1) The animal models used in this example and the following examples are as follows. Male CBA/CaJ mice at 4-6 weeks of age were purchased from National Laboratory Animal Center in Taiwan. The mice accessed to water and a regular mouse diet, and were kept at 22±1° C. under a standard 12h:12h light-dark cycle to acclimate for one week before the experiments. The lights were on from 5:00 to 17:00).
(§2) The experimental procedure of noise exposure is as follows. Three awake CBA/CaJ mice in the same group were placed in a sound chamber, with one mouse per stainless steel cage. The sound chamber was fitted with a loudspeaker, driven by an amplifier connected to a CD player. Broadband noise (BBN) with a frequency of 2 to 20 kHz was compiled onto a CD and equalized with software. […]
(§3) The experimental procedure of auditory brainstem response (ABR) is as follows. […] Body temperature was monitored and maintained near 37° C. with a heating pad. […] ABRs were measured at 8, 16, and 32 kHz. […] Thresholds were determined for each frequency by reducing the intensity in 10 dB increments and then in 5 dB steps near the threshold until no organized responses were detected. […] ABR thresholds were detected at before noise exposure and one week/three week after noise exposure. […]

[2] = system: CBA/CaJ mice; experiment: Noise-induced reduction of ABR wave I amplitude; assay type: in vivo; details: 16 kHz; 106-dB noise; chloroquine 50 mg/kg intraperitoneal, ODN 2088 5 mg/kg subcutaneous
Protocol: as §1
The experimental procedure of noise exposure is as follows. Three awake CBA/CaJ mice in the same group were placed in a sound chamber, with one mouse per stainless steel cage. The sound chamber was fitted with a loudspeaker, driven by an amplifier connected to a CD player. […]
as §3
To test if TLR7/9 antagonists could protect the auditory nerve against acoustic trauma, we measured the ABR wave I amplitudes at 16 kHz, which is one of the most sensitive frequencies of the auditory spectrum in the mice.

[3] = system: outer hair cell (OHC); experiment: Outer hair cell (OHC) counts in cochlear surface preparations after 106-dB noise; assay type: in vivo, mice; details: basal segment, chloroquine 50 mg/kg intraperitoneal
Protocol: as §1, §2
To examine if TLR7/9 antagonist could protect the OHC from acoustic trauma, we counted the OHCs in surface preparations after 106-dB noise exposure. […]
The experimental procedure of immunocytochemistry for outer hair cell (OHC) counts is as follows. […] Cell populations in the phalloidin-stained stereociliary bundles and circumferential F-actin rings around the cuticular plate of the OHCs were evaluated using an epifluorescence microscope. […] Each successive 0.25 mm field was evaluated beginning from the apex to the base for counting the number of OHCs. […]

[4] = system: cochlear cytokines and chemokines; experiment: Quantitative real-time RT-PCR of cochlear cytokine and chemokine gene expression after noise; assay type: in vivo, mice; details: one day after systemic (intraperitoneal) chloroquine treatment; noise exposure; normalized to Actb
Protocol: as §1, §2
To test if TLR7/9 antagonist could affect the expression of cochlear cytokines and chemokines after noise, we used quantitative real-time reverse transcription polymerase chain reaction (quantitative real-time RT-PCR) to analyze gene expression in the cochlea one day after systemic chloroquine treatment.
The experimental procedure of RNA isolation and quantitative real-time RT-PCR is as follows. […] Real-time quantitative PCR was performed in an ABI 7500 Fast Real-Time System (Applied Biosystems). […]

[5] = system: NF-κB; experiment: NF-κB immunostaining of the cochlea after noise; assay type: in vivo, mice; details: lateral wall, middle-basal segment; 106-dB noise
Protocol: as §1
(§4) The experimental procedure of noise exposure is as follows. Three awake CBA/CaJ mice in the same group were placed in a sound chamber, with one mouse per stainless steel cage. The sound chamber was fitted with a loudspeaker, driven by an amplifier connected to a CD player. Broadband noise (BBN) with a frequency of 2 to 20 kHz was compiled onto a CD and equalized with software. Sound levels were calibrated with a sound level meter (type 2250; Brtiel & Kja✓r) fitted with a microphone (type 4189; Brtiel & Kja✓r, Na✓rum, Denmark) at the locations of each cage within the sound chamber, before and after exposure to the noise. The control (sham) group was put in the same cage without exposure to noise for 2 hours. An intensity of 106 dB broadband noise was used to produce permanent threshold shifts.
(§5) Chloroquine was dissolved in saline. ODN 2088 was dissolved in endotoxin-free water. The control group was endotoxin-free water. […]

[6] = system: Iba-1±cells; experiment: Iba-1± cell (macrophage) infiltration into the cochlea after noise; assay type: in vivo, mice
Protocol: as §1, §4, §5

CCN(CC)CCCC(C)Nc1ccnc2cc(Cl)ccc12 (stereo not drawn) [chloroquine]
noise-induced ABR threshold shift [1]: attenuate 106-dB noise-induced auditory threshold shifts | noise-induced ABR threshold shift ([1]; listed as Chloroquine): decreased the noise-induced ABR thresholds shift | noise-induced decrease in ABR wave I amplitude [2]: attenuate 106-dB noise-induced wave I amplitude reduction at 16 kHz; also recorded: attenuated the noise-induced decrease in the amplitudes | percentage of OHC loss [3]: decreases noise-induced outer hair cell (OHC) loss; also recorded: attenuated the percentage of OHC loss over this area | mRNA expression of Tlr9, MyD88, Il-1β, Tnf-α and Irf-7 in the cochlea [4]: decreases noise-induced elevation of cochlear cytokines and chemokines expression; also recorded: attenuated these changes | noise-induced elevation of Ccl2, Ccl4 and Ccl12 expression in the cochlea [4]: decreases noise-induced elevation of cochlear cytokines and chemokines expression; also recorded: decreased the noise-induced elevation | immunostaining of NF-κB in the cochlea [5]: attenuates noise-induced nuclear factor kappa-B (NF-κB) immunostaining of the cochlea; also recorded: decreased the immunostaining of NF-κB | number of Iba-1±signals, quantification of immunofluorescence ([6]; each segment of the cochlea): reduces the number of Iba-1macrophage infiltration in the cochlea; also recorded: decreases the number of Iba-1signals in each segment of the cochlea | Iba-1±cell infiltration, immunohistochemistry ([6]; lower spiral ligament of the cochlea): attenuates noise-induced infiltration of Iba-1macrophages; also recorded: attenuates the increase in Iba-1cell infiltration
